Results: patent publication US9334229B2, “Hydroxytyrosol derivatives, their method of preparation and use in personal care” (Eastman Chemical Company, priority 2013, dated 2016)

How the values were obtained:
[1] = Control reaction without enzyme (toluene / pH 7 phosphate buffer); assay type: physicochemical
Experimental: 3,4-Bis(ethoxycarbonyloxy)phenethyl palmitate (100 mg; 0.186 mmol) was dissolved in 2 mL of toluene. […] The mixture was stirred vigorously and periodically analyzed by HPLC. After 24 h, LC analysis indicated 75.4% conversion of Compound 2 to hydroxytyrosol. After 48 h, LC analysis indicated 82.6% conversion of Compound 2 to hydroxytyrosol.

[2] = molecular target: T1, Novozyme 435 (Candida antarctica lipase B immobilized on an acrylic resin) (Moesziomyces antarcticus, UniProt P41365); assay: Enzymatic hydrolysis with Novozyme 435 in toluene / pH 7 phosphate buffer, conversion to hydroxytyrosol by HPLC; assay type: in vitro ADME; conditions: 100 mg compound, 100 mg Novozyme 435, toluene / pH 7 phosphate buffer, LC analysis
T1 construct: purchased Novozyme 435
Experimental: (§1) 3,4-Bis(ethoxycarbonyloxy)phenethyl palmitate (100 mg; 0.186 mmol) was dissolved in 2 mL of toluene. Novozyme 435 (Candida antarctica lipase B immobilized on an acrylic resin) (100 mg) was added followed by 2 mL of pH 7 phosphate buffer. The mixture was stirred vigorously and periodically analyzed by HPLC. After 24 h, LC analysis indicated 75.4% conversion of Compound 2 to hydroxytyrosol. After 48 h, LC analysis indicated 82.6% conversion of Compound 2 to hydroxytyrosol.
as §1, with “Hydroxytyrosol trihexanoate from Comparative Example 8” for “3,4-Bis(ethoxycarbonyloxy)phenethyl palmitate”, “0.223” for “0.186”, “resin)(100” for “resin) (100”, “<1%” for “75.4%”, “hydroxytyrosol trihexanoate” for “Compound 2”, “<1%” for “82.6%”

T1 sequence (P41365 26-342): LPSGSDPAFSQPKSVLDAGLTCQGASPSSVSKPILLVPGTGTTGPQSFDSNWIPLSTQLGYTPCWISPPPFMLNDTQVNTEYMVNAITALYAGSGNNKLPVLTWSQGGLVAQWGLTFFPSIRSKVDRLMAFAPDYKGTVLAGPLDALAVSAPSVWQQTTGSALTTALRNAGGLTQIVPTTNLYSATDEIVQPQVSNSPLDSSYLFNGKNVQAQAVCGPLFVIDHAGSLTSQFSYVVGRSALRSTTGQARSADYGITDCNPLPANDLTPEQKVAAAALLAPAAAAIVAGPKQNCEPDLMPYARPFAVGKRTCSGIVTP

| conversion to hydroxytyrosol in control reaction without enzyme [1] | SMILES | Enzymatic conversion to hydroxytyrosol ([2]; after 24 h) [%] | Enzymatic conversion to hydroxytyrosol ([2]; after 24 h, listed as hydroxytyrosol trihexanoate) [%] | Enzymatic conversion to hydroxytyrosol ([2]; after 48 h) [%] | Enzymatic conversion to hydroxytyrosol ([2]; after 48 h, listed as hydroxytyrosol trihexanoate) [%] |
| --- | --- | --- | --- | --- | --- |
| no conversion | CCCCCCCCCCCCCCCC(=O)OCCc1ccc(OC(=O)OCC)c(OC(=O)OCC)c1 [Compound 2, 3,4-Bis(ethoxycarbonyloxy)phenethyl palmitate] | – | – | – | – |
| – | CCCCCC(=O)OCCc1ccc(OC(=O)CCCCC)c(OC(=O)CCCCC)c1 [Hydroxytyrosol trihexanoate, Hydroxytyrosol Trihexanoate] | <1 | < 1 | <1 | < 1 |
